Assay results reported in patent US9597391B2, “Cyclic-dinucleotides and its conjugates as adjuvants and their uses in pharmaceutical compositions” (HELMHOLTZ_ZENTRUM FUER INFEKTIONSFORSCHUNG GMBH, priority 2005, dated 2017).

Key:
Assay type in all cases: in vivo
BALB/c (H-2d) mice [1] = experiment: Serum β-gal-specific IgG ELISA after i.n. or s.c. immunization with β-gal plus adjuvant; conditions: for β-gal specific IgG titer in sera, i.n. administration: β-gal 30 μg/dose with or without adjuvant 10 μg, end point titers (FIG. 11; FIG. 2)
Description: Experimental protocol: six-eight weeks-old female BALB/c (H-2d) mice were purchased from Harlan Winkelmann GmbH (Borchen, Germany) and treated in accordance with local and European Community guidelines. Groups of 5 mice each were immunized on day 1, 14 and 28 with 30 μg of β-gal (Boehringer, Mannheim, Germany), alone or as an admixture with 10 μg c-diGMP or with 10 μpg c-diAMP. For intranasal (i.n.) immunization, 10 μl were applied to each naris, whereas for the s.c. injection β-gal with or without c-diGMP or c-diAMP was resuspended in a volume of 20 μl PBS per animal. Serum samples were collected at day 38 after immunization and stored at −20° C. prior to determination of β-gal-specific antibodies. 96-well Nunc-Immuno MaxiSorp assay plates (Nunc, Roskilde, Denmark) were coated with 100 μl of β-gal (Boehringer, Mannheim, Germany) at 5 μg/ml in 0.05 M carbonate buffer (pH 8.2) per well. Serial two-fold dilutions of sera in PBS with 1% BSA and 0.05% Tween 20 were added (100 μl/well), and plates incubated for 16h at 37° C. After washing, biotinylated γ-chain-specific goat anti-mouse IgG (Sigma Chemie, Deisenhofen, Germany) was added, and plates were incubated for an additional 1 h at 37° C. After four washes, 100 μl of peroxidase-conjugated streptavidin (Pharmingen) was added to cells and plates incubated at 37° C. for 30 min. After four washes, reactions were developed with ABTS in 0.1 M citrate-phosphate buffer (pH 4.35) containing 0.01% H2O2. Results for c-diGMP are shown as OD405 values after serial two-fold dilutions (FIG. 2). […] The effect of c-diGMP as an adjuvant was independent of the route of administration.
In contrast, in the presence of c-diAMP, i.n. administration of β-gal induced very high titers of specific IgG in all mice with titers higher than 500,000 (FIG. 11).
In view of the above in vitro results, additional in vivo studies have been conducted. […] Thus, the capacity of c-diGMP and c-diAMP, respectively, to stimulate efficient humoral immune responses was evaluated, by determining the serum titers of β-gal-specific antibodies in vaccinated mice.

BALB/c (H-2d) mice [2] = experiment: β-gal-specific IgA in lung and vaginal lavages of immunized mice; conditions: for β-gal-specific IgA in lung lavages: i.n. immunization, day 38, versus β-gal alone (FIG. 4, FIG. 5)
Description: Experimental protocol: at day 38, mice were sacrificed and the final sampling was performed. Vaginal and lung lavages were obtained by flushing the organs with 1 ml of PBS supplemented with 50 mM EDTA, 0.1% BSA, and 10 mM PMSF. Lavages were then centrifuged to remove debris (10 min at 3000×g), and supernatant fluids were stored at −20° C. To determine the concentration of total IgA present in the lung and vaginal lavages, serial dilutions of the corresponding samples were incubated in microtiter plates that were previously coated with goat anti-mouse IgA (Sigma Chemie), as capture antibodies (100 μl/well). Serial dilutions of purified mouse IgA (Sigma Chemie) were used to generate a standard curve.
To investigate the capacity of c-diGMP and c-diAMP, respectively, to stimulate mucosal responses against antigens co-administered by the i.n. and s.c. route, the production of β-gal-specific IgA in lung was analyzed (FIG. 5 for c-diAMP and FIG. 4 for c-diGMP) from immunized animals, immunized according to the protocol described in Example 2.

spleen cells = experiment: [3H]thymidine proliferation of spleen cells from vaccinated mice restimulated in vitro with β-gal; conditions: for T cell proliferation after i.n. and s.c. administration: versus β-gal alone; for proliferation of spleen cells, i.n. immunization / proliferation of spleen cells, s.c. immunization: day 38, in vitro restimulation with β-gal; for proliferation of spleen cells, i.n. immunization: low amounts of antigen (FIG. 6); for proliferation of spleen cells, s.c. immunization: [3H]thymidine (FIG. 6)
Description: Experimental protocol: Spleens were removed and pooled for analysis of cellular immune responses. Cells were grown in RPMI 1640 supplemented with 10% fetal calf serum, 100 U/ml of penicillin, 50 μg/ml of streptomycin, 5×10^−5 M 2-mercaptoethanol and 1 mM L-glutamine (GIBCO BRL, Karlsruhe, Germany) and maintained at 37° C. in a humidified 5% CO2 atmosphere. Spleen cell suspensions were adjusted to 5×10^6 cells/ml in complete medium, cells were seeded with 100 μl per well in a flat-bottomed 96-well microtiter plate (Nunc) and plates were incubated for 4 days in the presence of different concentrations of soluble β-gal. That is, T cell mediated immune responses were investigated at day 38 by measuring the proliferation after in vitro restimulation with β-Gal of cells which have been recovered from spleens before. Said spleen cells were obtained from vaccinated mice—said mice where immunized as described in Example 2—and incubated in the presence of different concentrations of the soluble β-Gal antigen. Each concentration was tested in quadruplicates. During the final 18 h of culture, 1 μCi of [3H]thymidine (Amersham International, Freiburg, Germany) was added to each well. Cells were then harvested on paper filters (Filtermat A; Wallac, Freiburg, Germany) by using a cell harvester (Inotech, Wohlen, Switzerland), and the amount of incorporated [3H]thymidine into the DNA of proliferating cells was determined by a β-scintillation counter (Wallac 1450, Micro-Trilux). The results are expressed as the arithmetic mean of [^3H]thymidine uptake in cpm.
Thirty eight days following vaccination, spleens cells were purified, re-stimulated in vitro in the presence of various amounts of β-galactosidase and their proliferative capacity was estimated by measuring the incorporation of [3H]thymidine into their DNA using a β-scintillation counter.

| SMILES | β-gal specific IgG titer in sera, i.n. administration (BALB/c (H-2d) mice [1]) | β-gal specific sIgA expression in vaginal lavage (BALB/c (H-2d) mice [2]; c-diAMP as adjuvant, i.n. (FIG. 5)) | β-gal-specific IgA in lung lavages (BALB/c (H-2d) mice [2]) | T cell proliferation after i.n. and s.c. administration (spleen cells) | proliferation of spleen cells, i.n. immunization (spleen cells) | proliferation of spleen cells, s.c. immunization (spleen cells) | β-gal specific IgG titer in sera (BALB/c (H-2d) mice [1]; 30 μg β-gal + 10 μg adjuvant, day 1, 14, 28, serum day 38, independent of route (i.n., s.c.), FIG. 2, FIG. 3) | β-gal-specific IgA in lung lavages (BALB/c (H-2d) mice [2]; listed as c-dGMP) | β-gal specific sIgA expression in vaginal lavage, s.c. route (BALB/c (H-2d) mice [2]; s.c. route (not shown)) |
| --- | --- | --- | --- | --- | --- | --- | --- | --- | --- |
| Nc1ncnc2c1ncn2[C@@H]1O[C@@H]2COP(=O)(O)O[C@H]3[C@@H](O)[C@H](n4cnc5c(N)ncnc54)O[C@@H]3COP(=O)(O)O[C@H]2[C@H]1O [c-diAMP, cyclic bis(3′-5′)diadenylic acid] | higher than 500,000 | detectable | significant increase | statistically significant increment | efficient proliferative response | further increase in proliferation | – | – | – |
| Nc1nc2c(ncn2[C@@H]2O[C@@H]3COP(=O)(O)O[C@H]4[C@@H](O)[C@H](n5cnc6c(=O)[nH]c(N)nc65)O[C@@H]4COP(=O)(O)O[C@H]3[C@H]2O)c(=O)[nH]1 [c-diGMP, cyclic bis(3′-5′)diguanylic acid] | increased expression | – | higher | statistically significant increment | efficient proliferative response | further increase in proliferation | remarkably increased | significant increase | does not lead to an enhanced expression |
